Data as given in BindingDB's records for doi:10.1021/acs.jmedchem.1c01452 (Zhengzhou University, 2021).

Key:
[1] = Inhibition of ABCB1 (unknown origin) expressed in HEK293T cells assessed as reduction in paclitaxel IC50 at 1 uM pre-incubated for 4 hrs followed by paclitaxel addition and measured after 72 hrs by MTT assay
[2] = Inhibition of ABCB1 (unknown origin) expressed in HEK293T cells assessed as reduction in paclitaxel IC50 at 2 uM pre-incubated for 4 hrs followed by paclitaxel addition and measured after 72 hrs by MTT assay
[3] = Inhibition of ABCB1 (unknown origin) expressed in HEK293T cells assessed as reduction in colchicine IC50 at 1 uM pre-incubated for 4 hrs followed by colchicine addition and measured after 72 hrs by MTT assay
[4] = Inhibition of ABCB1 (unknown origin) expressed in HEK293T cells assessed as reduction in colchicine IC50 at 2 uM pre-incubated for 4 hrs followed by colchicine addition and measured after 72 hrs by MTT assay
[5] = Inhibition of ABCB1 (unknown origin) expressed in HEK293T cells assessed as reduction in paclitaxel IC50 at 0.5 uM pre-incubated for 4 hrs followed by paclitaxel addition and measured after 72 hrs by MTT assay
[6] = Inhibition of ABCB1 (unknown origin) expressed in HEK293T cells assessed as reduction in colchicine IC50 at 0.5 uM pre-incubated for 4 hrs followed by colchicine addition and measured after 72 hrs by MTT assay

Question: For `COc1cc2ncnc(-c3c(-c4ccccc4)n(Cc4ccccc4Br)c4ccccc34)c2cc1OCCCN1CCOCC1`, which IC50 [1] is on record?
Answer: 12.2 µM

Question: What about the IC50 [2] of the same compound?
Answer: 3.6 µM

Question: And the IC50 [3]?
Answer: 101 µM

Question: What about the IC50 [4] of the same compound?
Answer: 22.2 µM

Question: And the IC50 [5]?
Answer: 30.5 µM

Question: And the IC50 [6]?
Answer: 321 µM
